Laboratory results from ChEMBL document CHEMBL1201862, “PubChem BioAssay data set” (2004).
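Following 48 hours of exposure in 96-well plates, responses at five concentrations were used to interpolate endpoints linearly. At the GI50, growth is halved.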 Activity calls are given as the source filed them. Cut-off read from the data, not from the text of the source: active = GI50 up to about 1.1 µM and inactive = higher.

Tests used:
Test in all cases: growth of human tumour cells (NCI), 48 h
NCI-H226 = tested on: NCI-H226
RXF 393 = tested on: RXF 393
LOX IMVI = tested on: LOX IMVI
U-251 = tested on: U-251
CAKI-1 = tested on: CAKI-1
ACHN = tested on: ACHN
OVCAR-8 = tested on: OVCAR-8
COLO 205 = tested on: COLO 205
Hs-578T = tested on: Hs-578T
MDA-MB-231 = tested on: MDA-MB-231
NCI/ADR-RES = tested on: NCI/ADR-RES
SF-268 = tested on: SF-268
M14 = tested on: M14
SK-OV-3 = tested on: SK-OV-3
MDA-N = tested on: MDA-N
HL-60 = tested on: HL-60
MCF7 = tested on: MCF7
NCI-H522 = tested on: NCI-H522
UACC-62 = tested on: UACC-62
SNB-75 = tested on: SNB-75

Row | SMILES | GI50 (NCI-H226) | GI50 (RXF 393) | GI50 (LOX IMVI) | GI50 (U-251) | GI50 (CAKI-1) | GI50 (ACHN) | GI50 (OVCAR-8) | GI50 (COLO 205) | GI50 (Hs-578T) | GI50 (MDA-MB-231) | GI50 (NCI/ADR-RES) | GI50 (SF-268) | GI50 (M14) | GI50 (SK-OV-3) | GI50 (MDA-N) | GI50 (HL-60) | GI50 (MCF7) | GI50 (NCI-H522) | GI50 (UACC-62) | GI50 (SNB-75)
1 | CCOC(=O)/C=C(\C(=O)OCC)n1cnc2c(N)ncnc21 | 5.97 µM (inactive) | 12.6 µM (inactive) | 3.43 µM (inactive) | 7.94 µM (inactive) | 1.4 µM (inactive) | 6.67 µM (inactive) | 7.45 µM (inactive) | 1.99 µM (inactive) | 19.7 µM (inactive) | 7.31 µM (inactive) | 17.2 µM (inactive) | 15.3 µM (inactive) | 10.4 µM (inactive) | 17.7 µM (inactive) | 14.6 µM (inactive) | 0.931 µM (active) | 2.64 µM (inactive) | 1.6 µM (inactive) | 10.7 µM (inactive) | 12.4 µM (inactive)
2 | CC(C)[Si]1(C(C)C)OCC2OC(n3ccc(=O)[nH]c3=O)C([Se]c3ccccc3)C2O[Si](C(C)C)(C(C)C)O1 (stereo not given) | 1.55 µM (inactive) | 4.55 µM (inactive) | 0.769 µM (active) | 2.07 µM (inactive) | 11.5 µM (inactive) | 2.61 µM (inactive) | 3.4 µM (inactive) | 4.86 µM (inactive) | 0.762 µM (active) | 2.83 µM (inactive) | 11.2 µM (inactive) | 2.93 µM (inactive) | 8.24 µM (inactive) | 16.5 µM (inactive) | 3.4 µM (inactive) | 5.89 µM (inactive) | 2.75 µM (inactive) | 2.1 µM (inactive) | 4.71 µM (inactive) | 0.33 µM (active)
3 | Oc1cc(Cl)cc2cc(Cl)cnc12 | 19.5 µM (inactive) | 5.07 µM (inactive) | 0.597 µM (active) | 2.42 µM (inactive) | 12.9 µM (inactive) | 2.44 µM (inactive) | 2.28 µM (inactive) | 31 µM (inactive) | 22.1 µM (inactive) | 3.56 µM (inactive) | 1.49 µM (inactive) | 1.14 µM (inactive) | 3.3 µM (inactive) | 30.8 µM (inactive) | 6.34 µM (inactive) | 0.288 µM (active) | 3.4 µM (inactive) | 3.16 µM (inactive) | 2.49 µM (inactive) | 5.35 µM (inactive)
4 | Cc1ccc(-c2cn3c(nc4ccccc43)c(C)n2)cc1 | 34.3 µM (inactive) | 21.8 µM (inactive) | 71.6 µM (inactive) | 32.4 µM (inactive) | > 100 µM (inactive) | 30.3 µM (inactive) | 36 µM (inactive) | 49.9 µM (inactive) | 51.3 µM (inactive) | > 94.6 µM (inactive) | 40.1 µM (inactive) | > 46.6 µM (inactive) | 39.5 µM (inactive) | 7.66 µM (inactive) | 54.1 µM (inactive) | 26.5 µM (inactive) | 0.578 µM (active) | 31.2 µM (inactive) | 23.5 µM (inactive) | > 47 µM (inactive)
5 | COc1cc(/C=C2\C[C@H]3[C@@H]4CCC5=CC(=O)CC[C@]5(C)[C@H]4CC[C@]3(C)C2=O)cc(OC)c1OC | > 28.5 µM (inactive) | 10.1 µM (inactive) | 7.94 µM (inactive) | 11.7 µM (inactive) | 5.37 µM (inactive) | 9.16 µM (inactive) | 4 µM (inactive) | 4.32 µM (inactive) | 17.8 µM (inactive) | 7.74 µM (inactive) | 3.86 µM (inactive) | 57.3 µM (inactive) | 3.74 µM (inactive) | 29.4 µM (inactive) | 4.43 µM (inactive) | 3.39 µM (inactive) | 3.56 µM (inactive) | 3.2 µM (inactive) | 4.35 µM (inactive) | 9.08 µM (inactive)
6 | O=C1c2c(Br)sc(Br)c2[C@@H](Cl)[C@H]1Cl | 16.4 µM (inactive) | 15.5 µM (inactive) | 15.2 µM (inactive) | 14.5 µM (inactive) | 20.7 µM (inactive) | 19.2 µM (inactive) | 15.1 µM (inactive) | 15.7 µM (inactive) | 36.6 µM (inactive) | 19.5 µM (inactive) | 33.1 µM (inactive) | 19.1 µM (inactive) | 19.7 µM (inactive) | 19.4 µM (inactive) | 11 µM (inactive) | 3.27 µM (inactive) | 21.5 µM (inactive) | 3.07 µM (inactive) | 18.2 µM (inactive) | 17.6 µM (inactive)
7 | COC(=O)C12Oc3ccc(-c4ccc5c(c4O)C(O)=C4C(=O)CC(C)C(O)C4(C(=O)OC)O5)c(O)c3C(O)=C1C(=O)CC(C)C2O (stereo not given) | 0.416 µM (active) | 0.0877 µM (active) | 0.151 µM (active) | 0.0525 µM (active) | 0.346 µM (active) | 0.153 µM (active) | 0.094 µM (active) | 0.0656 µM (active) | 0.135 µM (active) | 0.63 µM (active) | 0.485 µM (active) | 0.0843 µM (active) | 0.104 µM (active) | 0.103 µM (active) | 0.125 µM (active) | 0.102 µM (active) | 0.151 µM (active) | 0.0304 µM (active) | 0.0708 µM (active) | 0.241 µM (active)
8 | Cc1nc(-c2ccccc2)cn2c1nc1ccccc12 | 17.5 µM (inactive) | 19.6 µM (inactive) | 20.8 µM (inactive) | 18.6 µM (inactive) | 21.1 µM (inactive) | 21.7 µM (inactive) | 18.8 µM (inactive) | 37.9 µM (inactive) | 35.4 µM (inactive) | 29.9 µM (inactive) | 20.9 µM (inactive) | 28.5 µM (inactive) | 30.5 µM (inactive) | 6.32 µM (inactive) | 21.8 µM (inactive) | 67 µM (inactive) | 2.8 µM (inactive) | 24.9 µM (inactive) | 14.7 µM (inactive) | 17.2 µM (inactive)
9 | O=C(O)CCSC(CC1(c2ccc(Cl)cc2)NC(=O)CCS1)c1ccccc1 (stereo not given) | 17.3 µM (inactive) | 21.7 µM (inactive) | 14.6 µM (inactive) | 10.4 µM (inactive) | 16.9 µM (inactive) | 25.5 µM (inactive) | 19.9 µM (inactive) | 22.3 µM (inactive) | 12.9 µM (inactive) | 22.1 µM (inactive) | 20.8 µM (inactive) | 18 µM (inactive) | 19.4 µM (inactive) | 20.5 µM (inactive) | 12.6 µM (inactive) | 3.44 µM (inactive) | 3.87 µM (inactive) | 15.1 µM (inactive) | 19.9 µM (inactive) | 17.1 µM (inactive)
10 | O=C(Cn1nc(Br)c(Br)c1Br)c1ccccc1 | 11.8 µM (inactive) | 13.6 µM (inactive) | 16.4 µM (inactive) | 34 µM (inactive) | 26.7 µM (inactive) | 27.3 µM (inactive) | 34.5 µM (inactive) | 18.9 µM (inactive) | 44.1 µM (inactive) | 18.9 µM (inactive) | 30.1 µM (inactive) | 51.3 µM (inactive) | 26.7 µM (inactive) | 32.5 µM (inactive) | 32.9 µM (inactive) | 10.9 µM (inactive) | 36.2 µM (inactive) | 26 µM (inactive) | 20 µM (inactive) | 23.2 µM (inactive)
11 | CC(C)NC(=O)OCc1c(COC(=O)NC(C)C)c(-c2cc[n+](COC(=O)C(C)(C)C)cc2)n2c1CCC2 | > 100 µM (inactive) | > 100 µM (inactive) | > 100 µM (inactive) | > 100 µM (inactive) | 60 µM (inactive) | 61.9 µM (inactive) | > 100 µM (inactive) | > 100 µM (inactive) | > 100 µM (inactive) | > 100 µM (inactive) | > 100 µM (inactive) | > 100 µM (inactive) | > 100 µM (inactive) | > 100 µM (inactive) | > 100 µM (inactive) | > 100 µM (inactive) | > 100 µM (inactive) | > 100 µM (inactive) | > 100 µM (inactive) | > 100 µM (inactive)
12 | CN1CCN(C2=C(Cl)C(=O)c3c(O)ccc(O)c3C2=O)CC1 | 2 µM (inactive) | 0.18 µM (active) | 0.635 µM (active) | 1.72 µM (inactive) | 0.546 µM (active) | 0.286 µM (active) | 0.223 µM (active) | 0.182 µM (active) | 2.41 µM (inactive) | 0.516 µM (active) | 0.632 µM (active) | 1.85 µM (inactive) | 0.281 µM (active) | 5.62 µM (inactive) | 0.35 µM (active) | 0.103 µM (active) | 0.24 µM (active) | 0.243 µM (active) | 1.32 µM (inactive) | 2.03 µM (inactive)
13 | O=C(Nc1ccccc1)O/N=C(/CBr)c1ccccc1 | 24 µM (inactive) | 31.9 µM (inactive) | 3.15 µM (inactive) | 14.5 µM (inactive) | 14.8 µM (inactive) | 17.1 µM (inactive) | 14.6 µM (inactive) | 15.7 µM (inactive) | 26.2 µM (inactive) | 12.2 µM (inactive) | 17.9 µM (inactive) | 14.3 µM (inactive) | 6.79 µM (inactive) | 29.2 µM (inactive) | 6.87 µM (inactive) | 4.66 µM (inactive) | 16.7 µM (inactive) | 8.85 µM (inactive) | 12.3 µM (inactive) | 15.2 µM (inactive)
14 | C/C(=N\O)c1cccc[n+]1Cc1ccccc1 | > 100 µM (inactive) | > 100 µM (inactive) | > 100 µM (inactive) | > 100 µM (inactive) | > 100 µM (inactive) | > 100 µM (inactive) | > 100 µM (inactive) | > 100 µM (inactive) | > 100 µM (inactive) | > 100 µM (inactive) | > 100 µM (inactive) | > 100 µM (inactive) | > 100 µM (inactive) | > 100 µM (inactive) | > 100 µM (inactive) | > 100 µM (inactive) | > 100 µM (inactive) | > 100 µM (inactive) | > 100 µM (inactive) | > 100 µM (inactive)
